Measured values taken from US20250275964A1, “METHODS OF INHIBITING LIVER-TYPE GLUTAMINASE, GLS2” (CORNELL UNIVERSITY, priority 2019, published 2025).

Assays:
[1] = system: glutaminase activity in mitochondria isolated from breast cancer cell lines; assay: Mitochondrial glutaminase activity assay; assay type: biochemical, human
Text: Breast cancer cells were fractionated into cytosolic, mitochondrial, and nuclear components via partial lysis and centrifugation using the Qproteome Mitochondria Isolation Kit (Qiagen). For all samples, a portion of the starting material (i.e. whole cells) was retained for comparison with the isolated fractions. When cellular fractions were to be analyzed only by western blot, a single 10 cm dish of exponentially growing cells was used. When mitochondria were isolated for glutaminase assays, two 15 cm dishes of exponentially growing cells were used.
A two-reaction protocol was used to measure mitochondrial glutaminase activity. […] The reaction was then quenched by addition of 10 μl of 2.4 M HCl, and samples placed on ice. Next, 20 μl of quenched Reaction Mix 1 was added to 200 μl of Reaction Mix 2 (1 unit bovine liver glutamate dehydrogenase (Sigma-Aldrich), 80 mM Tri-HCl pH 9.4, 200 mM hydrazine, 0.25 mM ADP, 2 mM NAD) and samples were incubated for 1 hour at room temperature. The absorbance at 340 nm was then measured against a matched sample in which heat-inactivated mitochondria (immersed in boiling water for 5 minutes) were used. A standard curve was prepared using given concentrations of glutamate in Reaction Mix 2, allowing the amount of glutamate produced in Reaction 1 to be determined.

breast cancer cell lines = assay: 6-day cell proliferation assay, collection of breast cancer cell lines; assay type: cell-based, human
Procedure: Human breast cancer cell lines MCF7, BT-474, T-47D, MDA-MB-453, MDA-MB-231, Hs 578T, HCC38, SK-BR-3, and DU4475 were purchased from the American Type Culture Collection (ATCC) and no additional cell authentication was performed. The TSE human breast cancer cell line was supplied by Dr. Steven Abcouwer (University of Michigan). All breast cancer cells were cultured at 37° C. under a 5% CO2 atmosphere in RPMI 1640 medium containing 2 mM glutamine (Gibco) and supplemented with 10% fetal bovine serum (FBS) (Gibco). The 293T cell line (ATCC) used for generating lentivirus particles was cultured as above but using DMEM, high glucose (Gibco).
Culture medium was added to 12-well plates (1 ml/well) and wells were seeded with cells at Day 0 as follows. MCF7, T-47D, BT-474, HCC38 cells: […] cells/well. MDA-MB-453 and MDA-MB-231 cells: 1×10^4 cells/well. TSE and Hs 578T cells: 0.3×10^4 cells/well. After 16 hours, culture medium was replaced with fresh medium supplemented with appropriate concentrations of inhibitors and was subsequently replaced every 48 hours. On Day 6 cells were trypsinized and suspended in an appropriate volume of culture medium, and the total number of cells per well was determined using a hemocytometer or a TC20 Automated Cell Counter (Bio-Rad).

[2] = molecular target: T1, recombinant full-length human GLS (GAC splice variant) (Homo sapiens, UniProt O94925); settings: previously reported (Wang et al. 2010); cited from earlier work
T1 construct: processed forms of human GAC (residues 72 to 598); inferred from pQE80 vector and Ni-NTA/imidazole purification; made in house; host or cells: E. coli BL21(DE3)
T1 sequence (O94925 72-598 isoform O94925-3): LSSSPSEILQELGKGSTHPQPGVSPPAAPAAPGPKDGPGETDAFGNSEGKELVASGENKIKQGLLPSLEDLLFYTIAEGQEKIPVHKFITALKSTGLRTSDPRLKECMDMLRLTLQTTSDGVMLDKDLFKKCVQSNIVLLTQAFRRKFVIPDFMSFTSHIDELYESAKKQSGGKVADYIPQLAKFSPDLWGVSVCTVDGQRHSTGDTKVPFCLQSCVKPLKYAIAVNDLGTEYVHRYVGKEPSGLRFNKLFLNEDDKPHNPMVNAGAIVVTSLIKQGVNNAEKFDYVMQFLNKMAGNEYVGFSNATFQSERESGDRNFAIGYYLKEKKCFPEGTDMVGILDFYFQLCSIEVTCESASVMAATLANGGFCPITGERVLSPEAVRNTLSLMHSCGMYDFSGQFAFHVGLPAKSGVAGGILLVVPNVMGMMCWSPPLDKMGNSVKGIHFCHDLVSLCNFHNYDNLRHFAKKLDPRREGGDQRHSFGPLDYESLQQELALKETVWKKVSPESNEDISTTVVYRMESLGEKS

[3] = molecular target: T1, recombinant full-length human GLS (GAC splice variant); assay: Real-time recombinant glutaminase activity assay, GLS; assay type: biochemical; settings: different concentrations
Procedure: Real-time monitoring of glutaminase activity through NADH production was performed on a Cary Eclipse fluorescence spectrometer. The excitation and emission wavelengths were set at 340 nm and 460 nm, respectively. […] Then, 100 μl of either 100 nM GAC or 500 nM GLS2 was added to this mixture and the fluorescence emission was monitored in real time. After 30 s, 200 μl of a mixture of glutamine and K2HPO4 was added such that the final concentrations of K2HPO4 and glutamine were 100 mM and 20 mM, respectively. The initial velocity of glutamine hydrolysis was obtained from the slopes of the linear portion of the kinetic curve.

SMILES	inhibition of mitochondrial glutaminase activity ([1]; mitochondria from MDA-MB-453 cells)	inhibition of mitochondrial glutaminase activity ([1]; mitochondria from basal-subtype cells, 10 μM)	inhibition of mitochondrial glutaminase activity ([1]; mitochondria from luminal-subtype breast cancer cells)	EC50 (breast cancer cell lines; breast cancer cells, 6 days) [µM]	maximal inhibition (breast cancer cell lines; cells with highest expression of GLS)	binding and inhibition of GLS splice variant GAC [2]	inhibition of recombinant GLS activity [3]
O=C(Cc1ccccc1)Nc1nnc(CCSCCc2nnc(NC(=O)Cc3ccccc3)s2)s1 [BPTES]	no effect on activity	almost completely abolished	only partially inhibited	–	–	–	–
CN(C)c1ccc(C2Nc3ccc4ccccc4c3C3=C2C(=O)CC(C)(C)C3)cc1Br (stereo not shown) [Compound 968]	–	–	–	3 to 5	70-75%	binds and inhibits	inhibited
